Results taken from patent EP4583874B1, “MULTITARGET NUCLEAR RECEPTOR LIGANDS BASED ON 2-(4-(QUINOLIN-2-YLOXY)PHENOXY)PROPANOIC ACID AND 2-(4-(QUINOXALIN-2-YLOXY)PHENOXY)PROPANOIC ACID FOR THE TREATMENT OF METABOLIC AND LIVER DISEASES” (CHARLES UNIVERSITY, FACULTY OF PHARMACY IN HRADEC KRALOVE, priority 2022, dated 2024).

Columns and labels:
human PPARγ = molecular target: T1, human PPARγ (Homo sapiens, UniProt P37231); test: PPARγ luciferase reporter gene assay (pGAL4-PPARγ / pGL5-UAS 9x) in HepG2 cells; format: cell-based; settings: HepG2, 24 h
T1 construct: DNA constructs encoding human LBD domains of human PPARα, PPARγ, of LXRα (pGAL4-PPARα, pGAL4-PPARγ, pGAL4-LXRα); expressed in transfected cells; host or cells: HepG2
T1 sequence (P37231 238-503 limits assumed): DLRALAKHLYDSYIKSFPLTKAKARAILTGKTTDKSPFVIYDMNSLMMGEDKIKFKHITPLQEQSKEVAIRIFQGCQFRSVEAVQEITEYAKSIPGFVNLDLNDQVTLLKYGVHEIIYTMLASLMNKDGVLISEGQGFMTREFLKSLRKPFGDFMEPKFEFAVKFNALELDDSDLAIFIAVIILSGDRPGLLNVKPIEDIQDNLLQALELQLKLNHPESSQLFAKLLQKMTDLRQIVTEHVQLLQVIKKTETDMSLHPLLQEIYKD

human FXR = molecular target: T2, human FXR (Homo sapiens, UniProt Q96RI1); test: FXR responsive luciferase reporter gene assay (FXRE-luc + human FXR expression construct) in HepG2 cells; format: cell-based; settings: HepG2, 24 h
T2 construct: expressed in transfected cells; host or cells: HepG2
T2 sequence (Q96RI1 1-486): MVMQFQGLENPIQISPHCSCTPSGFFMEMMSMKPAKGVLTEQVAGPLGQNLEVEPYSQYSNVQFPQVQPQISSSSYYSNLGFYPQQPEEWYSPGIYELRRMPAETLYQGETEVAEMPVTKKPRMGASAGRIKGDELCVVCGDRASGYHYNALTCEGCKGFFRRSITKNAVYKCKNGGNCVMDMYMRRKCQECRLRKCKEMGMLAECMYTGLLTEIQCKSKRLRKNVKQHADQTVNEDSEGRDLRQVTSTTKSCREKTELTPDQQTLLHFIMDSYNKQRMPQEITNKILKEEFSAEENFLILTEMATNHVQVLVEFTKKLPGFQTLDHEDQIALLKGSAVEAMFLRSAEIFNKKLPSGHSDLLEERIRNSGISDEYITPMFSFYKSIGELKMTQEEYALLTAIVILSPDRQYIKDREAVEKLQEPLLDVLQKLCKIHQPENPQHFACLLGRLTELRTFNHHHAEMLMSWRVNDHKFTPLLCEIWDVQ
Description: (§1) In HepG2 cells, luciferase gene reporter assays have been performed with the transiently transfected reporter gene luciferase construct with the UAS yeast binding site interacting with GAL4 protein (pGL5-UAS 9x, Promega). DNA constructs encoding human LBD domains of human PPARα, PPARγ, of LXRα (pGAL4-PPARα, pGAL4-PPARγ, pGAL4-LXRα) have been cotransfected with the reporter construct. For FXR, FXRE-luc construct with FXR response elements upstream of Firefly luciferase has been used together with an expression construct for human FXR for HepG2 cells transfection. HepG2 cells were then treated with compounds of the invention for 24 h.

TGR5 = molecular target: T3, TGR5 (Homo sapiens, UniProt Q8TDU6); test: TGR5 luciferase reporter assay; format: cell-based; settings: relative activation to LCA 10 µM (100%), negative value indicates inverse agonism
T3 sequence (Q8TDU6 1-330): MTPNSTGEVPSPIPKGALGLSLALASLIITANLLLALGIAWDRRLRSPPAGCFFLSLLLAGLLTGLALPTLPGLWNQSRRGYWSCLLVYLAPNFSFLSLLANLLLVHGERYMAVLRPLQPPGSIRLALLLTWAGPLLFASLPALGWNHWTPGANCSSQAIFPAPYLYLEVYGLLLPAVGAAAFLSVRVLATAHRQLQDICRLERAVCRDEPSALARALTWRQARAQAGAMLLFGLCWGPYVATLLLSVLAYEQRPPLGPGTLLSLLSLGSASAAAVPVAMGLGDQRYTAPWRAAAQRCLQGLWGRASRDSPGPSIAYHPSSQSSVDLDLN

human LXRα = molecular target: T4, human LXRα (Homo sapiens, UniProt Q13133); test: LXRα luciferase reporter gene assay, inhibition of activation by GW3965 (pGAL4-LXRα / pGL5-UAS 9x) in HepG2 cells; format: cell-based; settings: HepG2, 24 h; read-out: LXRα antagonism
T4 construct: DNA constructs encoding human LBD domains of human PPARα, PPARγ, of LXRα (pGAL4-PPARα, pGAL4-PPARγ, pGAL4-LXRα); expressed in transfected cells; host or cells: HepG2
T4 sequence (Q13133 209-447 limits assumed): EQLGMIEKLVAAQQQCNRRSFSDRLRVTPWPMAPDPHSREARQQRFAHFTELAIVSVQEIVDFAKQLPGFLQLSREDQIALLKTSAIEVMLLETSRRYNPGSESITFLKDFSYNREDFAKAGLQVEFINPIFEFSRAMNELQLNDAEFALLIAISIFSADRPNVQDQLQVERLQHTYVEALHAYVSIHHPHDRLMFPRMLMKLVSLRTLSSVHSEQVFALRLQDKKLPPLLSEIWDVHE
Method: Bezafibrate, GW7647 and WY14643 are known PPARα ligands. […] GW3965 is known high-affinity LXRα ligand.
Inverse agonistic/antagonistic activities of tested compounds to LXRα receptor activated by the LXRα agonist GW3965(10 µM). […] Negative value indicates inverse agonism.
as §1

[1] = test system: C57BL/6J mice fed with high fat diet; test: Proof-of-concept study in mice fed with high fat diet: plasma biochemistry, weights, IPGTT; format: in vivo; settings: HFD mice; for glucose plasma levels in Intraperitoneal Glucose Tolerance Test (IPGTT): IPGTT 1.5 g/kg BW
Description: Control group received a chow diet.
In the proof-of-concept study, after a 1-week of adaptation period, male C57BL/6J mice were randomly divided into three groups: (i) mice fed a chow diet (control; PicoLab RD 20, LabDiet) and tap water (n=4) or (ii) mice fed a high-fat diet (HFD) consisting of Western diet (AIN-76A WD, TestDiet, 20 % fat) and glucose (18.1 g/L) with fructose (24 g/L) provided in water. At week 21 on HFD diet, mice were randomly assigned into two experimental groups (10 and 11 mice per group): (ii) group on HFD, (iii) group on HFD administered with 10 mg/kg compound of EXAMPLE 37 as a salt (hydrochloride) (HFD +comp. 37). Compound of EXAMPLE 37or vehicle (1% methylcellulose) were administered once daily by oral gavage for another 3 weeks together with diets.
The i.p. Glucose tolerance test has been performed seven days before the termination of the study. For the purpose, […] of glucose dissolved in saline has been applied and blood was sampled in four intervals up to 120 minutes form tail vein. A standard glucometer was used to measure glycemia.
For biochemistry analyses, plasma liver enzyme activities were analyzed in plasma by a commercial Preventive Care Profile Plus test with Vetscan 2 device (Abaxis). Level of cholesterol and triglycerides in plasma and liver were measured by commercial kits (Erba Lachema s.r.o., Brno, Czech Republic).
Animals were sacrificed by anesthesia overdose. Plasma samples were obtained from the whole blood by centrifugation at 2,000 × g for 5 min at 4°C. The liver, gallbladder and abdominal fat were excised, weighted and immediately frozen in liquid nitrogen. All samples were stored at -80°C until analysis.

[2] = 10 mg/kg p.o. daily for 3 weeks (hydrochloride), vs HFD group

Emax at 10 µM (human PPARγ): 1%
Emax at 10 µM (human FXR): 77%
Emax at 10 µM (TGR5): 10%
inhibition at 10 µM (human LXRα): 39%
ALP plasma levels [1, 2]: increases
SMILES: C[C@@H](Oc1ccc(Oc2ccc3c(Cl)cccc3n2)cc1)C(=O)O [compound 37, (R)-2-(4-((5-Chloroquinolin-2-yl)oxy)phenoxy)propanoic acid]
ALT plasma levels [1, 2]: improves
AST plasma levels [1, 2]: improves
plasma triglyceride (TG) levels [1, 2]: significantly decreases
abdominal fat weight (AFW) ([1]; 10 mg/kg p.o. daily for 3 weeks, effect not statistically significant): decreased
body weight (BW) ([1]; 10 mg/kg p.o. daily, after three weeks of treatment): significantly decreased
glucose plasma levels in Intraperitoneal Glucose Tolerance Test (IPGTT) ([1]; after 15 minutes, 10 mg/kg p.o. daily): significantly decreased
glucose plasma levels in Intraperitoneal Glucose Tolerance Test (IPGTT) ([1]; other intervals, 10 mg/kg p.o. daily): the decrease was not statistically significant
